According to patent publication US7202219B1, “Use of D-tagatose as a prebiotic food component” (priority 1998, dated 2007):

Key:
colon content = assay: In vitro fermentation of D-tagatose by pig caecum/colon content slurries (Example 1); assay type: cell-based; details: for Tagatose degradation: in vitro incubation; for Mole % of SCFA after microbial fermentation of D-Tagatose: Acetate / Mole % of SCFA after microbial fermentation of D-Tagatose: Butyrate / Mole % of SCFA after microbial fermentation of D-Tagatose: Capronate / Mole % of SCFA after microbial fermentation of D-Tagatose: Formate / Mole % of SCFA after microbial fermentation of D-Tagatose: Heptanoate / Mole % of SCFA after microbial fermentation of D-Tagatose: Propionate / Mole % of SCFA after microbial fermentation of D-Tagatose: Valerate: 1% tagatose added, 0–4 h
Description: In the study, one group of 8 pigs was having a standard diet+15% sucrose (unadapted), and another group of 8 pigs was fed a standard diet+5% sucrose+10% D-tagatose (adapted) for 17 days.
On the 17. day the pigs were killed 3 hours after the morning feeding, and the entire gastrointestinal tract was sectioned. […] 20% slurries were incubated at 37° C. and anaerobic conditions for 4 hours with or without 1% D-tagatose added. The amount of SCFA produced by D-tagatose is calculated as the amount produced in the assay with 1% D-tagatose added subtracted by the amount produced in the assay without D-tagatose.

[1] = Concentration of butyrate in gastrointestinal sections at slaughtering (Example 2); assay type: in vivo, pig; details: pigs, 0, 10 or 20% D-tagatose in diet for 33 days; hind gut (FIG. 1)
Description: (§1) In this study, 3 groups of each 2 pigs were having a standard pig diet+20% sucrose, a standard pig diet+10% sucrose+10% D-tagatose, and a standard pig diet+20% D-tagatose for 33 days. The pigs were killed on the 33. day 6 hours after morning feeding, and the entire gastrointestinal tract was divided into 8 segments.
(§2) The concentrations of the various SCFA were measured in the 8 sections immediately after killing, and further the content from the 8 sections was used for 12 hour in vitro incubations at 37° C. and anaerobic conditions. In this in vitro assay no D-tagatose was added, and the fermentation products originate from unabsorbed D-tagatose and other undigestible food components from the diets.

[2] = tested on: content from the 8 sections; assay: 12 hour in vitro incubation of content from gut sections, no D-tagatose added (Example 2); assay type: cell-based, pig
Description: as §1, §2
The data presented here are normalized to production of SCFA pr kg feed.

[3] = In vivo absorption of SCFA in the blood (Example 3); design: species or system pig
Description: In this pig study the in vivo absorption of SCFA in the blood is measured by taking blood samples simultaneously from 3 catheters in Vena Mesenterica, Ateria mesenterica and Vena Porta over a 12 hour period after the morning feeding. The absorption is measured in the same 5 pigs at 3 different occasions, that is after 7 days adaptation to standard pig diet+20% sucrose (sucrose), the first day of switching to a standard pig diet+20% D-tagatose (unadapted), and after 7 days adaptation to a standard pig diet+20% D-tagatose (adapted). The concentration of SCFA's is determined in samples from the portal vein, that is the blood stream leading from the digestive system to the liver, and in the arterial blood, that is the blood stream before the digestive system. The difference between the two integrated by time is a measure of the intestinal absorption of SCFA's.
The area between the 2 curves is equal to the total absorption of butyrate from the intestine.

human faeces = assay: In vitro fermentation of tagatose by incubation of human faeces (Example 4); assay type: cell-based
Description: (§3) In this study 16 human volunteers deliver a faeces sample before any intake of D-tagatose (unadapted) and another faeces sample after 14 days' intake of 3×10 g of D-tagatose pr day (adapted). The 16 volunteers are on controlled diet 4 days before the delivery of each faeces samples. Faeces slurries, 20%, were incubated at 37° C. and anaerobic conditions for 48 hours with or without 1% D-tagatose added. Samples for determination of SCFA were taken after 4 hours and after 48 hours of incubation. The amount of SCFA produced by D-tagatose is calculated as the amount produced in the assay with 1% D-tagatose added subtracted by the amount produced in the assay without D-tagatose. Further, the delivered faeces samples were tested for content of various intestinal bacteria counts by spreading on selective media.

intestinal bacteria = assay: Counts of intestinal bacteria in faeces on selective media (Example 4); assay type: in vivo; details: human volunteers, 3×10 g D-tagatose pr day for 14 days versus before intake (FIG. 5)
Description: as §3

[4] = oral; cited from earlier work
human faecal incubations = details: cited from earlier work; for proportion of butyrate on fermentation: human faecal in vitro system (Mortensen et al. 1988)
[5] = normalized pr kg feed, 0, 10 or 20% D-tagatose in diet (FIG. 3)
[6] = addition of D-tagatose to the diet
[7] = pigs after 7 days of adaptation to 20% D-tagatose diet (FIG. 4)
[8] = 4 hours of incubation, Non-adapted
[9] = 48 hours of incubation, Adapted
[10] = 48 hours of incubation, Non-adapted

## O=C(CO)[C@@H](O)[C@@H](O)[C@H](O)CO [D-tagatose]
Colon content; Control pigs (unadapted), colon
  Tagatose degradation: 1.1 g/h/kg digesta
Colon content; Control pigs, caecum
  Mole % of SCFA after microbial fermentation of D-Tagatose: Acetate: 54.8 Mole %
  Mole % of SCFA after microbial fermentation of D-Tagatose: Butyrate: 18.2 Mole %
  Mole % of SCFA after microbial fermentation of D-Tagatose: Capronate: 2.0 Mole %
  Mole % of SCFA after microbial fermentation of D-Tagatose: Formate: 2.5 Mole %
  Mole % of SCFA after microbial fermentation of D-Tagatose: Heptanoate: 0.2 Mole %
  Mole % of SCFA after microbial fermentation of D-Tagatose: Propionate: 11.2 Mole %
  Mole % of SCFA after microbial fermentation of D-Tagatose: Valerate: 11.1 Mole %
  Tagatose degradation: 2.7 g/h/kg digesta
Colon content; Control pigs, colon
  Mole % of SCFA after microbial fermentation of D-Tagatose: Acetate: 70.1 Mole %
  Mole % of SCFA after microbial fermentation of D-Tagatose: Butyrate: 16.7 Mole %
  Mole % of SCFA after microbial fermentation of D-Tagatose: Capronate: 4.8 Mole %
  Mole % of SCFA after microbial fermentation of D-Tagatose: Formate: 0.0 Mole %
  Mole % of SCFA after microbial fermentation of D-Tagatose: Heptanoate: 0.6 Mole %
  Mole % of SCFA after microbial fermentation of D-Tagatose: Propionate: 0.0 Mole %
  Mole % of SCFA after microbial fermentation of D-Tagatose: Valerate: 7.8 Mole %
Colon content; D-tagatose pigs (adapted), colon
  Tagatose degradation: 15.3 g/h/kg digesta
Colon content; D-tagatose pigs, caecum
  Mole % of SCFA after microbial fermentation of D-Tagatose: Acetate: 21.5 Mole %
  Mole % of SCFA after microbial fermentation of D-Tagatose: Butyrate: 21.8 Mole %
  Mole % of SCFA after microbial fermentation of D-Tagatose: Capronate: 1.9 Mole %
  Mole % of SCFA after microbial fermentation of D-Tagatose: Formate: 14.4 Mole %
  Mole % of SCFA after microbial fermentation of D-Tagatose: Heptanoate: 0.0 Mole %
  Mole % of SCFA after microbial fermentation of D-Tagatose: Propionate: 17.0 Mole %
  Mole % of SCFA after microbial fermentation of D-Tagatose: Valerate: 23.4 Mole %
  Tagatose degradation: 3.7 g/h/kg digesta
Colon content; D-tagatose pigs, colon
  Mole % of SCFA after microbial fermentation of D-Tagatose: Acetate: 23.3 Mole %
  Mole % of SCFA after microbial fermentation of D-Tagatose: Butyrate: 46.3 Mole %
  Mole % of SCFA after microbial fermentation of D-Tagatose: Capronate: 6.8 Mole %
  Mole % of SCFA after microbial fermentation of D-Tagatose: Formate: 3.7 Mole %
  Mole % of SCFA after microbial fermentation of D-Tagatose: Heptanoate: 0.8 Mole %
  Mole % of SCFA after microbial fermentation of D-Tagatose: Propionate: 4.0 Mole %
  Mole % of SCFA after microbial fermentation of D-Tagatose: Valerate: 15.1 Mole %
Colon content; colon content from unadapted pigs
  butyrate in SCFA profile: less than 20%
[1]
  concentration of butyrate in the various gastrointestinal sections at the time of slaughtering: increasing in a dose response manner
[2]; content from gut sections of pigs on 0, 10 or 20% D-tagatose diet (FIG. 2)
  12 hour in vitro production of butyrate: acting in a dose response manner
[2]; [5]
  total 12 hour in vitro production of SCFA in the gut: acetate: not influenced
  total 12 hour in vitro production of SCFA in the gut: butyrate: in a dose response manner promote the microbiological production of butyrate
[3]; adapted versus unadapted to 20% D-tagatose diet
  total absorption of butyrate (area between portal and arterial curves): does not differ in the adapted and unadapted state
[3]; [6]
  absorption of acetate: not increased
  absorption of propionate: not increased
[3]; [7]
  concentration of butyrate in arterial blood: increasing
  concentration of butyrate in the portal blood: very steep increase a few hours after feeding
[3]; pigs in vivo, 20% D-tagatose diet
  time of adaptation to butyrate production: ≤ 12 h
[3]; pigs unadapted, first day of 20% D-tagatose diet, 12 hours after feeding (FIG. 4)
  butyrate in the portal vein: gradually increasing over the 12 hours of measuring
Human faeces; 4 hours of incubation, Adapted
  Molar Ratios (Mole %) of SCFA's: Acetic acid: 42.1 Mole %
  Molar Ratios (Mole %) of SCFA's: Butyric acid: 34.7 Mole %
  Molar Ratios (Mole %) of SCFA's: Capronic acid: 3.5 Mole %
  Molar Ratios (Mole %) of SCFA's: Formic acid: 5.8 Mole %
  Molar Ratios (Mole %) of SCFA's: Heptanic acid: 0.6 Mole %
  Molar Ratios (Mole %) of SCFA's: Lactic acid: 9.0 Mole %
  Molar Ratios (Mole %) of SCFA's: Propionic acid: 4.1 Mole %
  Molar Ratios (Mole %) of SCFA's: Valeric acid: 1.0 Mole %
  Total SCFA (production mmol/l): 24.3 mmol/L
Human faeces; [8]
  Molar Ratios (Mole %) of SCFA's: Acetic acid: 62.8 Mole %
  Molar Ratios (Mole %) of SCFA's: Butyric acid: 24.5 Mole %
  Molar Ratios (Mole %) of SCFA's: Capronic acid: 6.7 Mole %
  Molar Ratios (Mole %) of SCFA's: Formic acid: 0.5 Mole %
  Molar Ratios (Mole %) of SCFA's: Heptanic acid: 1.1 Mole %
  Molar Ratios (Mole %) of SCFA's: Lactic acid: 3.9 Mole %
  Molar Ratios (Mole %) of SCFA's: Propionic acid: 0.0 Mole %
  Molar Ratios (Mole %) of SCFA's: Valeric acid: 3.0 Mole %
  Total SCFA (production mmol/l): 8.8 mmol/L
Human faeces; [9]
  Molar Ratios (Mole %) of SCFA's: Acetic acid: 35.3 Mole %
  Molar Ratios (Mole %) of SCFA's: Butyric acid: 47.0 Mole %
  Molar Ratios (Mole %) of SCFA's: Capronic acid: 13.5 Mole %
  Molar Ratios (Mole %) of SCFA's: Formic acid: 0.1 Mole %
  Molar Ratios (Mole %) of SCFA's: Heptanic acid: 1.2 Mole %
  Molar Ratios (Mole %) of SCFA's: Lactic acid: 3.0 Mole %
  Molar Ratios (Mole %) of SCFA's: Propionic acid: 0.5 Mole %
  Molar Ratios (Mole %) of SCFA's: Valeric acid: 1.6 Mole %
  Total SCFA (production mmol/l): 44.0 mmol/L
Human faeces; [10]
  Molar Ratios (Mole %) of SCFA's: Acetic acid: 37.7 Mole %
  Molar Ratios (Mole %) of SCFA's: Butyric acid: 38.7 Mole %
  Molar Ratios (Mole %) of SCFA's: Capronic acid: 15.2 Mole %
  Molar Ratios (Mole %) of SCFA's: Formic acid: 0.0 Mole %
  Molar Ratios (Mole %) of SCFA's: Heptanic acid: 1.6 Mole %
  Molar Ratios (Mole %) of SCFA's: Lactic acid: 8.6 Mole %
  Molar Ratios (Mole %) of SCFA's: Propionic acid: 0.0 Mole %
  Molar Ratios (Mole %) of SCFA's: Valeric acid: 1.2 Mole %
  Total SCFA (production mmol/l): 49.0 mmol/L
Human faeces; human faeces slurry, 1% D-tagatose
  time of adaptation in the in vitro incubation system: ≤ 48 h
Intestinal bacteria
  entero-bacteria in faeces: decreased
  number of lactic acid bacteria in faeces: increased in number
  number of lactobacilli in faeces: increased in number
[4]
  ingested D-tagatose absorbed in the small intestine: 15–20%

## O=C[C@H](O)[C@@H](O)[C@@H](O)[C@H](O)C(=O)O [galacturonic acid]
Human faecal incubations
  proportion of butyrate on fermentation: high proportion of butyrate

## O=C(O)[C@H]1OC(O)[C@H](O)[C@@H](O)[C@@H]1O (some centres unmarked) [glucoronic acid]
Human faecal incubations
  proportion of butyrate on fermentation: high proportion of butyrate

## OC[C@@H](O)[C@@H](O[C@H]1O[C@H](CO)[C@@H](O)[C@H](O)[C@H]1O)[C@H](O)[C@@H](O)CO [maltitol]
Human faecal incubations; Rapaille and Bornet 1997
  butyrate on in vitro incubation: 10%

## OC[C@@H](O)[C@@H](O)[C@H](O)[C@@H](O)CO [sorbitol]
Human faecal incubations
  proportion of butyrate on fermentation: high proportion of butyrate
